The record followed here is patent US20230102554A1 (GB002, INC., priority 2019, published 2023).

In experiment [1] the target is T1, Human PDGFRα, cytoplasmic domain (GST-PDGFRα) (Homo sapiens, UniProt P16234).
T1 construct: made in house
Description: Human PDGFRα biochemical inhibition assay (off-chip Mobility Shift Assay).

The target of experiment [2] is T2, Human PDGFRβ, cytoplasmic domain (GST-PDGFRβ) (Homo sapiens, UniProt P09619).
T2 construct: made in house
Description: Human PDGFRβ biochemical inhibition assay (off-chip Mobility Shift Assay). The procedure, abridged: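 GST-tagged cytoplasmic domain (aa 557-1106) from baculovirus was incubated 1 h at room temperature with compound, CSKtide, ATP at Km and Mg²⁺ in HEPES buffer, pH 7.5. Phosphorylated and unphosphorylated peptide were separated by off-chip mobility shift, and the product ratio P/(P+S) gave percent inhibition.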

T1 sequence (P16234 550-1089 T674I): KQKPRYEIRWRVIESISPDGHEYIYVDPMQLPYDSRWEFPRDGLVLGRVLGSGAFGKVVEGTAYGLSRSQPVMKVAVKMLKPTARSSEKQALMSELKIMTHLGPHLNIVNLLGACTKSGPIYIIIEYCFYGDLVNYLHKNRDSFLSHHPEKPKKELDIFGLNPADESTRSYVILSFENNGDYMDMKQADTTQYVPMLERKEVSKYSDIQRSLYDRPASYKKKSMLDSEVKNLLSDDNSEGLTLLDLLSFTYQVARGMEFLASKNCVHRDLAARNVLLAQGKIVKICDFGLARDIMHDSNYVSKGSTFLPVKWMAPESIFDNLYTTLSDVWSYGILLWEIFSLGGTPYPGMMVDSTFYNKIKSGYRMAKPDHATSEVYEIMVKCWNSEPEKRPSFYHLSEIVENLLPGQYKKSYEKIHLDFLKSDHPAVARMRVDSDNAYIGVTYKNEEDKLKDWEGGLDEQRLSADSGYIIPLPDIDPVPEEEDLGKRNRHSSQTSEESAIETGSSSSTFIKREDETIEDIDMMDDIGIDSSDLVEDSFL
T2 sequence (P09619 with tags, fused parts or gaps): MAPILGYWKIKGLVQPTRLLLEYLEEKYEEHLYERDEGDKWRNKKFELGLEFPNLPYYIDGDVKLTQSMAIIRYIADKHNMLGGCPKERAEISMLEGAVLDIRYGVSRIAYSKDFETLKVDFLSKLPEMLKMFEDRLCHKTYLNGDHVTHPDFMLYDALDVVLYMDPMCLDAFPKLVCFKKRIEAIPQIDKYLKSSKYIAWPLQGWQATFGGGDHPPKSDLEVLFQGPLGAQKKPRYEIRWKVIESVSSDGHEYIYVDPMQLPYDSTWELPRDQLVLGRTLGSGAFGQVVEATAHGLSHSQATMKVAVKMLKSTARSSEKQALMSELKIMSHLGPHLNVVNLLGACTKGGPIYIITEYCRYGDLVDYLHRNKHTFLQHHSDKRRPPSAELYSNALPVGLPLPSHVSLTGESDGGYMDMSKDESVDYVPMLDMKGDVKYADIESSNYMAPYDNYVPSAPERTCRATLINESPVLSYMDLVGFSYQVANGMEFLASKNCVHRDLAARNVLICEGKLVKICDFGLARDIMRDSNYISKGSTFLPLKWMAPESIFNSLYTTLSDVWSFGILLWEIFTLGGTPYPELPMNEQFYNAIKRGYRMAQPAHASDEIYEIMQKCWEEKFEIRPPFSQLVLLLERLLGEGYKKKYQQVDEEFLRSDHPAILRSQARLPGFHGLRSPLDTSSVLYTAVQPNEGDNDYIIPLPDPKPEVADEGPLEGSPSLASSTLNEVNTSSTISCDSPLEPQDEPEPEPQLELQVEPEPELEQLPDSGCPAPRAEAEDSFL

The term IC50 denotes the concentration at which inhibition is half-maximal. Regarding `CCn1cc2ncc(N[C@@H](C)c3cccc(NC(=O)c4cnc(CO)s4)c3)nc2n1` [Compound 363, (S)-N-(3-(1-((2-ethyl-2H-pyrazolo[3,4-b]pyrazin-6-yl)amino)ethyl)phenyl)-2-(hydroxymethyl)thiazole-5-carboxamide], the IC50 in experiment [1] and in experiment [2] was no less than 1000 nM in each case.
Take `Cc1cc(C(=O)Nc2cccc([C@H](C)Nc3cnc4[nH]cc(-c5cnn(C)c5)c4n3)c2)cnc1N1CCCC1` [Compound 577, (S)-5-methyl-N-(3-(1-((7-(1-methyl-1H-pyrazol-4-yl)-5H-pyrrolo[2,3-b]pyrazin-2-yl)amino)ethyl)phenyl)-6-(pyrrolidin-1-yl)nicotinamide]: the IC50 in experiment [1] and in experiment [2] was less than 300 nM throughout.
Turning to `CCn1cc2ncc(N[C@@H](C)c3cccc(NC(=O)c4ccc(CN5CC(F)C5)c(C)c4)c3)nc2n1` [Compound 497, (S)-N-(3-(1-((2-ethyl-2H-pyrazolo[3,4-b]pyrazin-6-yl)amino)ethyl)phenyl)-4-((3-fluoroazetidin-1-yl)methyl)-3-methylbenzamide], the IC50 in experiment [1] and in experiment [2] was less than 300 nM each time.
On to `CCn1cc2ncc(N[C@@H](C)c3cccc(NC(=O)Cc4ccc(OC)c(F)c4)c3)nc2n1` [Compound 626, (S)-N-(3-(1-((2-ethyl-2H-pyrazolo[3,4-b]pyrazin-6-yl)amino)ethyl)phenyl)-2-(3-fluoro-4-methoxyphenyl) acetamide], for which the values for the IC50 in experiment [1] and in experiment [2] were less than 300 nM and no less than 1000 nM, respectively.
With `CCn1cc2ncc(N[C@@H](C)c3cccc(NC(=O)c4cnc(C(C)O)s4)c3)nc2n1` (stereo partly drawn) [Compound 381, N-(3-((S)-1-((2-ethyl-2H-pyrazolo[3,4-b]pyrazin-6-yl)amino)ethyl)phenyl)-2-(1-hydroxyethyl)thiazole-5-carboxamide], the results for the IC50 in experiment [1] and in experiment [2] were less than 300 nM and 300 to 1000 nM, respectively.
`C[C@H](Nc1cnc2cnn(C)c2n1)c1cccc(NC(=O)c2ccn(CC(F)F)n2)c1` [Compound 158, (S)-1-(2,2-difluoroethyl)-N-(3-(1-((1-methyl-1H-pyrazolo[3,4-b]pyrazin-6-yl)amino)ethyl)phenyl)-1H-pyrazole-3-carboxamide]: the IC50 in experiment [1] is less than 300 nM; in experiment [2] it was 300 to 1000 nM.
Take `CCn1cc2ncc(N[C@@H](C)c3cccc(NC(=O)c4cnc(N5CCOCC5)s4)c3)nc2n1` [Compound 339, (S)-N-(3-(1-((2-ethyl-2H-pyrazolo[3,4-b]pyrazin-6-yl)amino)ethyl)phenyl)-2-morpholinothiazole-5-carboxamide]: the IC50 in experiment [1] was less than 300 nM; in experiment [2], 300 to 1000 nM.
For `CCn1cc2ncc(N[C@@H](C)c3cccc(NC(=O)c4cc(F)c(CN5CCN(C)CC5)c(Cl)c4)c3)nc2n1` [Compound 489, (S)-3-chloro-N-(3-(1-((2-ethyl-2H-pyrazolo[3,4-b]pyrazin-6-yl)amino)ethyl)phenyl)-5-fluoro-4-((4-methylpiperazin-1-yl)methyl)benzamide], the IC50 in experiment [1] and in experiment [2] was less than 300 nM in each case.
As to `CCn1cc2ncc(N[C@@H](C)c3cccc(NC(=O)c4ccoc4)c3)nc2n1` [Compound 368, (S)-N-(3-(1-((2-ethyl-2H-pyrazolo[3,4-b]pyrazin-6-yl)amino)ethyl)phenyl)furan-3-carboxamide], the IC50 in experiment [1] and in experiment [2] was no less than 1000 nM in each case.
For `Cc1cncc(C(=O)Nc2cccc([C@H](C)Nc3cnc4ccn(CCO)c4n3)c2)c1` [Compound 83, (S)-N-(3-(1-((5-(2-hydroxyethyl)-5H-pyrrolo[2,3-6]pyrazin-3-yl)amino)ethyl)phenyl)-5-methylnicotinamide], the IC50 in experiment [1] is less than 300 nM; in experiment [2] it was no less than 1000 nM.
For `CC(C)n1cc(C(=O)Nc2cccc([C@H](C)Nc3cnc4cn[nH]c4n3)c2)cn1` [Compound 100, (S)-N-(3-(1-((1H-pyrazolo[3,4-b]pyrazin-6-yl)amino)ethyl)phenyl)-1-isopropyl-1H-pyrazole-4-carboxamide], the IC50 in experiment [1] and in experiment [2] was less than 300 nM in each case.
